The values below come from patent US4234586A, “Nitrogen bridgehead compounds having anti-allergic effect” (Chinoin Gyogyszer es Vegyeszeti Termekek Gyara Rt., priority 1977, dated 1980).

The structures appear in SMILES notation.

One test has as its system Released Hist. Nature of the test: Released Hist. in vitro. It counts as cell-based. The following applies: Rattus norvegicus. As to the method: (§1) The PCA text [Ovary: J. Immun. 81, 355 (1958)] and the Church test [British J. Pharm. 46, 56-66 (1972); Immunology 29, 527-534 (1975)] were used. The tests were carried out on rats.
Test [1] deals with rats. Briefly: PCA test (antiallergic effect, rats). It counts as in vivo, rat. The following applies: for inhibition in vivo at 320 µM, 320 µmol/kg / ED50: Rattus norvegicus; for inhibition in vivo at 320 µM, 320 µmol/kg: single dose of 320 μM/kg, route not given, read-out: PCA test, percentage of activity for a single dose of 320 μM/kg. As to the method: as §1
The subject of test [2] is rats. Briefly: Church test (antiallergic effect, rats). It counts as in vivo. The following applies: Rattus norvegicus, iv. The protocol: as §1
For a further test, the system named is asthma. The following applies: desired effect only by inhalation (spinhaler); cited from earlier work.
Setting [3] is: iv, read-out: ED50 in the PCA test, further compounds.
The mark [4] stands for this setting: iv, rats, i.v., read-out: PCA test ED50 i.v.
Setting [5] is: iv, rats, i.v., second part of Table 1, read-out: PCA test ED50 i.v.
Where [6] appears, read: po, rats, p.o., read-out: PCA test ED50 p.o.

Broadly, the EC50 is the concentration that produces a half-maximal response. Turning to `Cc1cccc(NN=C2CCC(C)n3c2ncc(C(=O)O)c3=O)c1` (centres unmarked) [Example 50, 9-(3-methyl-phenyl-hydrazono)-6-methyl-4-oxo-6,7,8,9-tetrahydro-4H-pyrido(1,2-a)pyrimidine-3-carboxylic acid], the EC50 in the test on Released Hist. (third part of Table 1) amounted to 73 µM. For the same compound, the inhibition in vivo at 320 µM, 320 µmol/kg with rats [1] (rats) was 100%.

The term ED50 denotes the dose at which the effect has come halfway, by size or by number of responders. As to `CCOc1ccc(NN=C2CCC(C)n3c2ncc(C(=O)O)c3=O)cc1` (centres unmarked) [Example 35, 9-(p-ethoxy-phenyl-hydrazono)-6-methyl-4-oxo-6,7,8,9-tetrahydro-4H-pyrido(1,2-a)pyrimidine-3-carboxylic acid], the EC50 with Released Hist. (third part of Table 1) amounted to 17.6 µM. In the test on rats [1] (setting [3]), the ED50 amounted to 1 µmol/kg. The inhibition in vivo at 320 µM, 320 µmol/kg in the test on rats [1] (rats) came to 100%.

Take `O=C(O)c1cc(=O)c2c(OCC(O)COc3cccc4oc(C(=O)O)cc(=O)c34)cccc2o1` [Disodium-chromoglycate, reference compound]: the ED50 in the test on rats [2] turned out to be 0.84 µmol/kg; in the test on rats [1] (setting [4]) it was 1 µmol/kg. The “anti-asthmatic effect when administered orally” value in the test on asthma was “ineffective when administered orally”. For the same compound, the “activity by route of administration (in words)” value in the test on rats [1] (oral vs intravenous) is given as “effective only when administered intravenously”. The “PCA test ED50 p.o. (result in words)” value with rats [1] (rats, p.o.) was “ineffective”.

For the compound `CC1CCC(=NNc2ccc(Cl)cc2)c2ncc(C(=O)O)c(=O)n21` (centres unmarked) [Example 18, 9-(p-chloro-phenyl-hydrazono)-6-methyl-4-oxo-6,7,8,9-tetrahydro-4H-pyrido(1,2-a)pyrimidine-3-carboxylic acid], the EC50 with Released Hist. (second part of Table 1) was 100 µM. Moreover, the ED50 in the test on rats [1] (setting [5]) and in the test on rats [1] (setting [3]) was 0.53 µmol/kg throughout.

Regarding `CC1CCC(=NNc2ccccc2C(=O)O)c2ncc(C(=O)O)c(=O)n21` (centres unmarked) [Example 17, 9-(o-carboxy-phenyl-hydrazono)-6-methyl-4-oxo-6,7,8,9-tetrahydro-4H-pyrido(1,2-a)pyrimidine-3-carboxylic acid], the ED50 with rats [1] (setting [3]) came out at 0.48 µmol/kg.

Turning to `CC1CCC(=NNc2ccccc2)c2ncc(C(=O)O)c(=O)n21` (centres unmarked) [Example 14, 9-(phenyl-hydrazono)-6-methyl-4-oxo-6,7,8,9-tetrahydro-4H-pyrido(1,2-a)pyrimidine-3-carboxylic acid], the ED50 came to 0.31 µmol/kg with rats [2], 0.6 µmol/kg with rats [1] (setting [4]) and 1.2 µmol/kg in the test with rats [1] (setting [6]).

`CC1CCC(=NNc2cccnc2)c2ncc(C(=O)O)c(=O)n21` (centres unmarked) [Example 23, 6-methyl-9-(3-pyridyl-hydrazono)-4-oxo-6,7,8,9-tetrahydro-4H-pyrido(1,2-a)pyrimidine-3-carboxylic acid]: in the test with Released Hist. (second part of Table 1), the EC50 came to 120 µM. Besides, the ED50 with rats [1] (setting [5]) worked out at 0.53 µmol/kg; in the test with rats [1] (setting [3]), 0.54 µmol/kg.

As to `CC1CCC(=NNc2cccc([N+](=O)[O-])c2)c2ncc(C(=O)O)c(=O)n21` (centres unmarked) [Example 43, 9-(3-nitro-phenyl)-hydrazono-6-methyl-4-oxo-6,7,8,9-tetrahydro-4H-pyrido(1,2-a)pyrimidine-3-carboxylic acid], the EC50 in the test on Released Hist. (third part of Table 1) stood at 100 µM. Moreover, the inhibition in vivo at 320 µM, 320 µmol/kg in the test on rats [1] (rats) turned out to be 100%.

Turning to `CC1CCC(=NNc2ccc(C(=O)O)cc2)c2ncc(C(=O)O)c(=O)n21` (centres unmarked) [Example 48, 9-(4-carboxy-phenyl-hydrazono)-6-methyl-4-oxo-6,7,8,9-tetrahydro-4H-pyrido(1,2-a)pyrimidine-3-carboxylic acid], the EC50 in the test with Released Hist. (third part of Table 1) amounted to 100 µM. Besides, the inhibition in vivo at 320 µM, 320 µmol/kg in the test with rats [1] (rats) came out at 100%.

With `CC1CCC(=NNc2ccccc2)c2ncc(C(=O)O)c(=O)n21` (single isomer, unassigned; (+)) [Example 37, (+)-9-(phenyl-hydrazono)-6-methyl-4-oxo-6,7,8,9-tetrahydro-4H-pyrido(1,2-a)pyrimidine-3-carboxylic acid], the ED50 with rats [2] came to 0.14 µmol/kg; in the test with rats [1] (setting [4]), 0.29 µmol/kg; in the test on rats [1] (setting [6]), 1 µmol/kg.

Consider `CC1CCC(=NN)c2ncc(C(=O)O)c(=O)n21` (centres unmarked) [Example 26, 9-hydrazono-6-methyl-4-oxo-6,7,8,9-tetrahydro-4H-pyrido(1,2-a)pyrimidine-3-carboxylic acid], for which the EC50 in the test on Released Hist. (third part of Table 1) was found to be 90 µM. In the test with rats [1] (rats), the inhibition in vivo at 320 µM, 320 µmol/kg amounted to 89%.

For `CC1CCC(=NNc2ccc(Br)cc2)c2ncc(C(=O)O)c(=O)n21` (centres unmarked) [Example 16, 9-(p-bromo-phenyl-hydrazono)-6-methyl-4-oxo-6,7,8,9-tetrahydro-4H-pyrido(1,2-a)pyrimidine-3-carboxylic acid], the EC50 with Released Hist. (third part of Table 1) was 2 µM. In addition, in the test on rats [1] (rats), the inhibition in vivo at 320 µM, 320 µmol/kg was found to be 100%.

Take `CC1CCC(=NNc2cccc(Cl)c2)c2ncc(C(=O)O)c(=O)n21` (centres unmarked) [Example 45, 9-(3-chloro-phenyl-hydrazono)-6-methyl-4-oxo-6,7,8,9-tetrahydro-4H-pyrido(1,2-a)pyrimidine-3-carboxylic acid]: the EC50 in the test on Released Hist. (third part of Table 1) was 312 µM. Moreover, the inhibition in vivo at 320 µM, 320 µmol/kg with rats [1] (rats) came to 100%.

Turning to `CC1CCC(=NNc2ccc(Cl)c(Cl)c2)c2ncc(C(=O)O)c(=O)n21` (centres unmarked) [Example 41, 9-(3,4-dichloro-phenyl-hydrazono)-6-methyl-4-oxo-6,7,8,9-tetrahydro-4H-pyrido-(1,2-a)pyrimidine-3-carboxylic acid], the EC50 in the test on Released Hist. (third part of Table 1) came out at 100 µM. In the test with rats [1] (rats), the inhibition in vivo at 320 µM, 320 µmol/kg amounted to 100%.
